Experimental data reported in paper PMC3113977, “Structural characteristics and antiviral activity of multiple peptides derived from MDV glycoproteins B and H” (Virology Journal, 2011).
Where a SMILES comes first, the peptide text is derived from it.

Experiments:
[1] = Gel filtration (GF) analysis of oligomeric state; type: physicochemical; conditions: for MW of polymer (GF peak molecular mass): Superdex G75, 20 mM Tris-HCl pH 8.0, estimated against protein standards; for Oligomeric state: aqueous solution, Superdex G75, 20 mM Tris-HCl pH 8.0, GF peak mass versus MS monomer mass
Description: Figure 5 GF results and structural analyses of five peptides. (top) GF analysis of peptides. The purified peptides were loaded onto the Superdex G75 column in a buffer solution of 20 mM Tris-HCl, pH 8.0. The peak molecular mass was estimated by comparison with the protein standards running on the same column. The clear peak of gHH1 occurred at about 12.1 kDa. This molecular mass matches the approximate sum of four molecules, indicating the formation of the homotetrameric structure. The peak of gHH2 occurred at about 7.2 kDa, indicating the formation of the homodimeric structure. The peak of gHH3 occurred at about 3.8 kDa, indicating the monomeric state. The peak of gHH5 occurred at about 9.1 kDa, indicating the formation of the homotrimeric structure. The peak of gBH1 occurred at about 10.7 kDa, indicating the formation of the homotrimeric structure. (bottom) Sequences and calculated oligomeric states of gHH1, gHH2, gHH3, gHH5, and gBH1 in aqueous solution. TEXT PRINTED IN THE PICTURE: gHH1: MW of monomer: 3184 Da; MW of polymer: 12.1 kDa; Oligomeric state: 4 (tetramer) | gHH2: MW of monomer: 3623 Da; MW of polymer: 7.2 kDa; Oligomeric state: 2 (dimer) | gHH3: MW of monomer: 3795 Da; MW of polymer: 3.8 kDa; Oligomeric state: 1 (monomer) | gHH5: MW of monomer: 3002 Da; MW of polymer: 9.1 kDa; Oligomeric state: 3 (trimer) | gBH1: MW of monomer: 3303 Da; MW of polymer: 10.7 kDa; Oligomeric state: 3 (trimer)
The purified cleaved peptides were loaded onto the Superdex G75 column in a solution buffer of 20 mM Tris-HCl, pH 8.0. The peak molecular mass was estimated by comparison with protein standards running on the same column. The peak fractions were collected and analysed by 15% SDS-PAGE. The analytical column was calibrated using a series of individual runs of standard molecular mass proteins as markers including bovine serum albumin (68 kDa), egg white albumin (43 kDa), […] (13.7 kDa), aprotinin (6.5 kDa), antimicrobial peptides (5 kDa), and vitamin B12 (1.4 kDa).

MDV [2] = type: cell-based, Marek's disease virus (MDV) strain RB1B
MDV [3] = test system: MDV; parameters: species or system Marek's disease virus (MDV) strain RB1B; conditions: in vivo

Compound	MW of polymer (GF peak molecular mass) [1] [kDa]	Oligomeric state [1]	plaque formation (MDV [2])	lesion formation on CAMs (words) (MDV [3])	inhibition of plaque formation (MDV [2]) [%]	lesion formation on CAMs (MDV [3])	plaque formation (result in words) (MDV [2])
CC[C@H](C)[C@H](NC(=O)[C@H](C)NC(=O)[C@H](C)NC(=O)[C@H](CCC(=O)O)NC(=O)[C@H](C)NC(=O)[C@H](CCC(=O)O)NC(=O)[C@H](CCCNC(=N)N)NC(=O)[C@H](CCCCN)NC(=O)[C@@H](NC(=O)[C@H](CS)NC(=O)[C@H](CCC(N)=O)NC(=O)CNC(=O)[C@H](CC(C)C)NC(=O)[C@@H](NC(=O)[C@@H](NC(=O)[C@@H](N)CCCNC(=N)N)[C@@H](C)CC)[C@@H](C)CC)[C@@H](C)CC)C(=O)N[C@@H](CCC(=O)O)C(=O)N[C@@H](CCC(N)=O)C(=O)N[C@H](C(=O)N[C@@H](Cc1ccccc1)C(=O)N[C@@H](CCCNC(=N)N)C(=O)N[C@H](C(=O)N[C@@H](CCCCN)C(=O)N[C@@H](Cc1ccc(O)cc1)C(=O)N[C@@H](CC(N)=O)C(=O)N[C@@H](CC(=O)O)C(=O)N[C@@H](CO)C(=O)N[C@@H](Cc1c[nH]cn1)C(=O)O)[C@@H](C)O)[C@@H](C)CC [gBH1]	10.7	3	~12%	significantly able to reduce lesion formation			
CC[C@H](C)[C@H](NC(=O)[C@H](CCC(=O)O)NC(=O)[C@H](CCSC)NC(=O)[C@H](CC(=O)O)NC(=O)[C@H](CO)NC(=O)[C@H](C)NC(=O)[C@H](CC(N)=O)NC(=O)[C@H](CCSC)NC(=O)[C@@H](N)Cc1c[nH]cn1)C(=O)N[C@@H](CCCCN)C(=O)N[C@@H](CO)C(=O)N[C@@H](Cc1ccc(O)cc1)C(=O)N[C@H](C(=O)N[C@@H](CC(N)=O)C(=O)N[C@@H](CCSC)C(=O)N[C@H](C(=O)N[C@@H](CCC(=O)O)C(=O)N[C@@H](CO)C(=O)N[C@H](C(=O)N[C@@H](CCC(=O)O)C(=O)N[C@@H](CCC(=O)O)C(=O)N[C@@H](CO)C(=O)N[C@@H](CO)C(=O)N[C@@H](CC(N)=O)C(=O)N[C@@H](Cc1ccc(O)cc1)C(=O)N[C@@H](CC(=O)O)C(=O)N[C@@H](Cc1ccccc1)C(=O)O)C(C)C)[C@@H](C)CC)[C@@H](C)CC [gHH1] (H-HMNASDMEIKSYINMIESVEESSNYDF-OH; N-terminus and C-terminus assumed)	12.1	4	completely inhibited	significantly able to reduce lesion formation	100	completely inhibited	
CC[C@H](C)[C@H](NC(=O)[C@H](Cc1ccc(O)cc1)NC(=O)CNC(=O)[C@H](CO)NC(=O)[C@H](CCC(N)=O)NC(=O)[C@H](Cc1ccccc1)NC(=O)[C@H](C)NC(=O)[C@H](CC(N)=O)NC(=O)[C@H](CCCNC(=N)N)NC(=O)[C@@H](NC(=O)[C@H](CO)NC(=O)[C@H](C)NC(=O)[C@@H](NC(=O)[C@H](CC(C)C)NC(=O)[C@H](CO)NC(=O)[C@H](CCSC)NC(=O)[C@H](Cc1ccccc1)NC(=O)[C@H](CC(C)C)NC(=O)[C@H](CCCNC(=N)N)NC(=O)[C@@H](NC(=O)[C@@H](NC(=O)[C@@H](NC(=O)[C@@H](N)C(C)C)C(C)C)[C@@H](C)O)[C@@H](C)O)C(C)C)C(C)C)C(=O)N[C@@H](CO)C(=O)N[C@@H](Cc1ccccc1)C(=O)N[C@@H](CC(=O)O)C(=O)N[C@@H](CCC(=O)O)C(=O)N[C@H](C(=O)N[C@H](C(=O)N[C@@H](CCCCN)C(=O)N[C@H](C(=O)N[C@@H](CCC(=O)O)C(=O)O)[C@@H](C)O)[C@@H](C)CC)[C@@H](C)CC [gHH2] (H-VVTTRLFMSLVASVRNAFQSGYISFDEIIKTE-OH; N-terminus and C-terminus assumed)	7.2	2		significantly able to reduce lesion formation			completely inhibited
CC[C@H](C)[C@H](NC(=O)[C@H](CO)NC(=O)[C@H](CC(C)C)NC(=O)[C@H](CO)NC(=O)[C@H](C)NC(=O)[C@@H](NC(=O)[C@H](CC(N)=O)NC(=O)[C@H](CCCCN)NC(=O)[C@H](CO)NC(=O)[C@H](C)NC(=O)[C@H](CC(N)=O)NC(=O)[C@@H](NC(=O)[C@@H](NC(=O)[C@@H](NC(=O)[C@H](CCCCN)NC(=O)[C@H](CCCNC(=N)N)NC(=O)[C@@H](NC(=O)[C@H](CC(C)C)NC(=O)[C@H](CO)NC(=O)[C@H](CCCCN)NC(=O)[C@@H](NC(=O)[C@@H](NC(=O)[C@H](CC(=O)O)NC(=O)[C@H](C)NC(=O)[C@@H](N)CC(N)=O)[C@@H](C)CC)[C@@H](C)CC)[C@@H](C)CC)[C@@H](C)O)[C@@H](C)CC)[C@@H](C)CC)[C@@H](C)O)C(=O)N[C@@H](CC(C)C)C(=O)N[C@@H](CCC(N)=O)C(=O)N[C@@H](Cc1c[nH]cn1)C(=O)N[C@@H](CC(C)C)C(=O)N[C@@H](Cc1ccc(O)cc1)C(=O)N[C@H](C(=O)N[C@@H](CC(C)C)C(=O)N[C@@H](CCCNC(=N)N)C(=O)N[C@@H](CO)C(=O)O)C(C)C [gHH3] (H-NADIIKSLIRKTIINASKNTASLSILQHLYVLRS-OH; N-terminus and C-terminus assumed)	3.8	1	~20%	significantly able to reduce lesion formation			
CC[C@H](C)[C@H](NC(=O)[C@H](CCCCN)NC(=O)[C@@H](NC(=O)[C@H](Cc1ccc(O)cc1)NC(=O)[C@H](CCSC)NC(=O)[C@H](CCC(=O)O)NC(=O)[C@H](CCC(N)=O)NC(=O)[C@@H](NC(=O)[C@@H](NC(=O)[C@H](CC(C)C)NC(=O)[C@H](CCC(=O)O)NC(=O)[C@@H](NC(=O)[C@H](C)NC(=O)[C@@H](NC(=O)[C@@H](NC(=O)[C@H](Cc1c[nH]cn1)NC(=O)[C@H](CCC(=O)O)NC(=O)[C@H](CCC(=O)O)NC(=O)[C@@H](NC(=O)[C@@H](N)CS)[C@@H](C)O)[C@@H](C)CC)C(C)C)[C@@H](C)O)C(C)C)[C@@H](C)CC)[C@@H](C)CC)C(=O)N[C@@H](CC(N)=O)C(=O)N[C@H](C(=O)N[C@@H](CCCCN)C(=O)N[C@@H](CC(N)=O)C(=O)N[C@@H](CO)C(=O)N1CCC[C@H]1C(=O)O)C(C)C [gHH5] (H-CTEEHIVATELVIQEMYIKINVKNSP-OH; N-terminus and C-terminus assumed)	9.1	3	~13%	significantly able to reduce lesion formation			
